According to the NIST ThermoML archive (doi:10.1016/j.jct.2005.09.003):
Numbers after ± are expanded uncertainties.

Experiment: xn = mol fraction of the nth substance listed
Conditions: 298.15 K, Liquid

CCCCCCCl [1-chlorohexane] + CCCCCCCC
mass density [kg/m3]
Conditions	x2 = 0	x2 = 0.1016	x2 = 0.1996	x2 = 0.3153	x2 = 0.3948	x2 = 0.4862	x2 = 0.5938	x2 = 0.6966	x2 = 0.794	x2 = 0.9001
100 kPa	873.42 ± 0.43	852.6 ± 0.44	833.25 ± 0.45	811.26 ± 0.47	796.69 ± 0.49	780.47 ± 0.5	762.03 ± 0.52	745.09 ± 0.55	729.61 ± 0.57	713.36 ± 0.59
2130 kPa	874.73 ± 0.46	854.08 ± 0.48	834.69 ± 0.5	812.8 ± 0.53	798.13 ± 0.54	781.96 ± 0.57	763.56 ± 0.6	746.66 ± 0.63	731.16 ± 0.65	714.88 ± 0.68
4150 kPa	876.45 ± 0.49	855.81 ± 0.52	836.43 ± 0.54	814.54 ± 0.58	799.88 ± 0.6	783.71 ± 0.63	765.29 ± 0.67	748.4 ± 0.7	732.88 ± 0.73	716.61 ± 0.77
6180 kPa	878.31 ± 0.51	857.67 ± 0.54	838.25 ± 0.58	816.37 ± 0.62	801.68 ± 0.66	785.49 ± 0.69	767.08 ± 0.73	750.15 ± 0.77	734.61 ± 0.81	718.33 ± 0.85
8210 kPa	879.79 ± 0.53	859.18 ± 0.58	839.81 ± 0.62	817.9 ± 0.67	803.24 ± 0.71	787.05 ± 0.75	768.66 ± 0.8	751.72 ± 0.84	736.21 ± 0.89	719.94 ± 0.93
10230 kPa	881.44 ± 0.56	860.8 ± 0.61	841.43 ± 0.66	819.53 ± 0.72	804.88 ± 0.77	788.69 ± 0.81	770.3 ± 0.87	753.38 ± 0.92	737.85 ± 0.96	721.55 ± 1
11250 kPa	882.22 ± 0.57	861.6 ± 0.63	842.23 ± 0.68	820.34 ± 0.75	805.7 ± 0.79	789.48 ± 0.84	771.11 ± 0.9	754.16 ± 0.95	738.66 ± 1	722.34 ± 1.1
12260 kPa	883.01 ± 0.59	862.42 ± 0.65	843.03 ± 0.7	821.13 ± 0.77	806.5 ± 0.82	790.3 ± 0.87	771.9 ± 0.93	754.95 ± 0.98	739.44 ± 1	723.13 ± 1.1
14290 kPa	884.61 ± 0.62	864.01 ± 0.68	844.63 ± 0.74	822.72 ± 0.82	808.08 ± 0.87	791.9 ± 0.93	773.49 ± 0.99	756.55 ± 1.1	741 ± 1.1	724.69 ± 1.2
16310 kPa	886.16 ± 0.64	865.53 ± 0.71	846.17 ± 0.78	824.27 ± 0.87	809.62 ± 0.92	793.43 ± 0.98	775.01 ± 1.1	758.05 ± 1.1	742.51 ± 1.2	726.2 ± 1.2
18340 kPa	887.68 ± 0.67	867.07 ± 0.75	847.69 ± 0.82	825.8 ± 0.91	811.15 ± 0.97	794.94 ± 1	776.55 ± 1.1	759.59 ± 1.2	744.03 ± 1.3	727.69 ± 1.3
20370 kPa	889.18 ± 0.69	868.58 ± 0.78	849.18 ± 0.86	827.29 ± 0.96	812.64 ± 1	796.42 ± 1.1	778.03 ± 1.2	761.06 ± 1.3	745.51 ± 1.3	729.16 ± 1.4
22390 kPa	890.65 ± 0.72	870.05 ± 0.81	850.64 ± 0.9	828.77 ± 1	814.1 ± 1.1	797.89 ± 1.1	779.48 ± 1.2	762.51 ± 1.3	746.97 ± 1.4	730.59 ± 1.5
24420 kPa	892.14 ± 0.74	871.52 ± 0.84	852.13 ± 0.94	830.22 ± 1.1	815.56 ± 1.1	799.35 ± 1.2	780.91 ± 1.3	763.95 ± 1.4	748.37 ± 1.5	732.01 ± 1.6
26450 kPa	893.54 ± 0.77	872.95 ± 0.87	853.55 ± 0.98	831.64 ± 1.1	816.97 ± 1.2	800.75 ± 1.3	782.33 ± 1.4	765.32 ± 1.5	749.76 ± 1.5	733.39 ± 1.6
28470 kPa	894.96 ± 0.79	874.35 ± 0.9	854.96 ± 1	833.04 ± 1.1	818.37 ± 1.2	802.14 ± 1.3	783.71 ± 1.4	766.73 ± 1.5	751.13 ± 1.6	734.74 ± 1.7
29490 kPa	895.65 ± 0.8	875.05 ± 0.92	855.64 ± 1	833.73 ± 1.2	819.06 ± 1.2	802.85 ± 1.3	784.39 ± 1.4	767.4 ± 1.6	751.81 ± 1.6	735.41 ± 1.8
30500 kPa	896.32 ± 0.81	875.72 ± 0.93	856.33 ± 1.1	834.42 ± 1.2	819.73 ± 1.3	803.52 ± 1.4	785.07 ± 1.5	768.07 ± 1.6	752.47 ± 1.7	736.07 ± 1.8
32530 kPa	897.71 ± 0.84	877.11 ± 0.96	857.7 ± 1.1	835.79 ± 1.2	821.11 ± 1.3	804.86 ± 1.4	786.42 ± 1.5	769.4 ± 1.6	753.8 ± 1.8	737.38 ± 1.9
34550 kPa	899.05 ± 0.86	878.46 ± 0.99	859.03 ± 1.1	837.12 ± 1.3	822.43 ± 1.4	806.19 ± 1.5	787.72 ± 1.6	770.72 ± 1.7	755.08 ± 1.8	738.69 ± 1.9
36580 kPa	900.38 ± 0.88	879.77 ± 1	860.35 ± 1.1	838.43 ± 1.3	823.74 ± 1.4	807.48 ± 1.5	789.01 ± 1.6	772.01 ± 1.8	756.36 ± 1.9	739.94 ± 2
38600 kPa	901.69 ± 0.9	881.06 ± 1.1	861.67 ± 1.2	839.72 ± 1.4	825.03 ± 1.4	808.77 ± 1.6	790.32 ± 1.7	773.27 ± 1.8	757.63 ± 1.9	741.21 ± 2.1
39620 kPa	902.33 ± 0.91	881.71 ± 1.1	862.31 ± 1.2	840.38 ± 1.4	825.68 ± 1.5	809.4 ± 1.6	790.96 ± 1.7	773.9 ± 1.9	758.25 ± 2	–
